Assay results published in patent US11051515B2, “3-acyl-benzamides and their use as herbicides” (Bayer Aktiengesellschaft, priority 2017, dated 2021).

Columns and labels:
ALOMY [1] = experiment: Pre-emergence action against ALOMY; assay type: in vivo, Alopecurus myosuroides; conditions: dosage 320 g/ha, pre-emergence, scored visually after 3 weeks vs untreated controls, 100% = plants have died, 0% = like control plants
Method in brief: (§1)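 Seeds sown in sandy loam in wood-fiber pots and covered with soil. Greenhouse growth; visual damage scored after 3 weeks versus untreated controls (100% = dead, 0% = like control).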

AVEFA [2] = experiment: Pre-emergence action against AVEFA; assay type: in vivo, Avena fatua; conditions: dosage 320 g/ha, scored visually after 3 weeks vs untreated controls
Method in brief: as §1

DIGSA [3] = experiment: Pre-emergence action against DIGSA; assay type: in vivo, Digitaria sanguinalis; conditions: dosage 320 g/ha, scored visually after 3 weeks vs untreated controls
Method in brief: as §1

ECHCG [4] = experiment: Pre-emergence action against ECHCG; assay type: in vivo, Echinochloa crus-galli; conditions: pre-emergence, dosage 320 g/ha, scored visually after 3 weeks vs untreated controls
Method in brief: as §1

LOLRI = experiment: Pre-emergence action against LOLRI; assay type: in vivo, Lolium rigidum; conditions: dosage 320 g/ha, scored visually after 3 weeks vs untreated controls
Method in brief: as §1

SETVI [5] = experiment: Pre-emergence action against SETVI; assay type: in vivo, Setaria viridis; conditions: pre-emergence, dosage 320 g/ha, scored visually after 3 weeks vs untreated controls
Method in brief: as §1

ABUTH [6] = experiment: Pre-emergence action against ABUTH; assay type: in vivo, Abutilon theophrasti; conditions: pre-emergence, dosage 320 g/ha, scored visually after 3 weeks vs untreated controls
Method in brief: as §1

AMARE [7] = experiment: Pre-emergence action against AMARE; assay type: in vivo, Amaranthus retroflexus; conditions: pre-emergence, dosage 320 g/ha, scored visually after 3 weeks vs untreated controls
Method in brief: as §1

MATIN [8] = experiment: Pre-emergence action against MATIN; assay type: in vivo, Matricaria inodora; conditions: Dosage 320 g/ha, pre-emergence
Method in brief: as §1

PHBPU [9] = experiment: Pre-emergence action against PHBPU; assay type: in vivo, Pharbitis purpurea; conditions: Dosage 320 g/ha, pre-emergence
Method in brief: as §1

STEME [10] = experiment: Pre-emergence action against STEME; assay type: in vivo, Stellaria media; conditions: Dosage 320 g/ha, pre-emergence
Method in brief: as §1

VIOTR [11] = experiment: Pre-emergence action against VIOTR; assay type: in vivo, Viola tricolor; conditions: Dosage 320 g/ha, pre-emergence
Method in brief: as §1

VERPE [12] = experiment: Pre-emergence action against VERPE; assay type: in vivo, Veronica persica; conditions: Dosage 320 g/ha, pre-emergence
Method in brief: as §1

HORMU = experiment: Pre-emergence action against HORMU; assay type: in vivo, Hordeum murinum; conditions: Dosage 320 g/ha
Method in brief: as §1

ALOMY [13] = experiment: Post-emergence action against ALOMY; assay type: in vivo, Alopecurus myosuroides; conditions: Dosage 80 g/ha, post-emergence
Method in brief: (§2)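 Post-emergence foliar spray on greenhouse plants at the one-leaf stage, using wettable-powder or emulsion-concentrate formulations in water (600 to […], plus 0.2% wetting agent). Damage scored by eye roughly 3 weeks later against untreated plants: 0% = like control, 100% = dead.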

AVEFA [14] = experiment: Post-emergence action against AVEFA; assay type: in vivo, Avena fatua; conditions: post-emergence, dosage 80 g/ha, visual assessment about 3 weeks after treatment vs untreated controls
Method in brief: as §2

DIGSA [15] = experiment: Post-emergence action against DIGSA; assay type: in vivo, Digitaria sanguinalis; conditions: dosage 80 g/ha, visual assessment about 3 weeks after treatment vs untreated controls
Method in brief: as §2

ECHCG [16] = experiment: Post-emergence action against ECHCG; assay type: in vivo, Echinochloa crus-galli; conditions: post-emergence, dosage 80 g/ha, visual assessment about 3 weeks after treatment vs untreated controls
Method in brief: as §2

SETVI [17] = experiment: Post-emergence action against SETVI; assay type: in vivo, Setaria viridis; conditions: post-emergence, dosage 80 g/ha, visual assessment about 3 weeks after treatment vs untreated controls
Method in brief: as §2

ABUTH [18] = experiment: Post-emergence action against ABUTH; assay type: in vivo, Abutilon theophrasti; conditions: post-emergence, dosage 80 g/ha, visual assessment about 3 weeks after treatment vs untreated controls
Method in brief: as §2

AMARE [19] = experiment: Post-emergence action against AMARE; assay type: in vivo, Amaranthus retroflexus; conditions: post-emergence, dosage 80 g/ha, visual assessment about 3 weeks after treatment vs untreated controls
Method in brief: as §2

MATIN [20] = experiment: Post-emergence action against MATIN; assay type: in vivo, Matricaria inodora; conditions: post-emergence, dosage 80 g/ha, visual assessment about 3 weeks after treatment vs untreated controls
Method in brief: as §2

PHBPU [21] = experiment: Post-emergence action against PHBPU; assay type: in vivo, Pharbitis purpurea; conditions: post-emergence, dosage 80 g/ha
Method in brief: as §2

POLCO = experiment: Post-emergence action against POLCO; assay type: in vivo, Polygonum convolvulus; conditions: post-emergence, dosage 80 g/ha
Method in brief: as §2

STEME [22] = experiment: Post-emergence action against STEME; assay type: in vivo, Stellaria media; conditions: post-emergence, dosage 80 g/ha
Method in brief: as §2

VIOTR [23] = experiment: Post-emergence action against VIOTR; assay type: in vivo, Viola tricolor; conditions: post-emergence, dosage 80 g/ha
Method in brief: as §2

VERPE [24] = experiment: Post-emergence action against VERPE; assay type: in vivo, Veronica persica; conditions: dosage 80 g/ha
Method in brief: as §2

CYPES [25] = experiment: Pre-emergence action against CYPES; assay type: in vivo, Cyperus esculentus; conditions: Cyperus esculentus, 504 h; pre-emergence, dosage 320 g/ha, scored visually after 3 weeks vs untreated controls; read-out: Pre-emergence action against CYPES (herbicidal activity)
Method in brief: as §1

CYPES [26] = experiment: Post-emergence action against CYPES; assay type: in vivo, Cyperus esculentus; conditions: Cyperus esculentus, 504 h; post-emergence, dosage 80 g/ha, visual assessment about 3 weeks after treatment vs untreated controls; read-out: Post-emergence action against CYPES (herbicidal action in percent)
Method in brief: as §2

LOLMU = experiment: Post-emergence action against LOLMU; assay type: in vivo, Lolium multiflorum; conditions: Lolium multiflorum, 504 h, dosage 80 g/ha, visual assessment about 3 weeks after treatment vs untreated controls, read-out: Post-emergence action against LOLMU (herbicidal action in percent)
Description: Seeds of monocotyledonous and dicotyledonous weed and crop plants are laid out in sandy loam soil in wood-fiber pots, covered with soil and cultivated in a greenhouse under good growth conditions. 2 to 3 weeks after sowing, the test plants are treated at the one-leaf stage. The compounds of the invention, formulated in the form of wettable powders (WP) or as emulsion concentrates (EC), are then sprayed onto the green parts of the plants in the form of an aqueous suspension or emulsion at a water application rate equating to […], with addition of 0.2% wetting agent. After the test plants have been left to stand in the greenhouse under optimal growth conditions for about 3 weeks, the action of the preparations is assessed visually in comparison to untreated controls (herbicidal action in percent (%): 100% activity=the plants have died, 0% activity=like control plants). […] At the same time, inventive compounds leave Gramineae crops such as barley, wheat, rye, millet/Sorghum, corn or rice virtually undamaged when applied post-emergence, even at high active ingredient dosages. In addition, some substances are also harmless to dicotyledonous crops such as soya, cotton, oilseed rape, sugar beet or potatoes. Some of the compounds according to the invention have high selectivity and are therefore suitable for controlling unwanted vegetation in agricultural crops by the post-emergence method. The data of Tables B18 to B34 below illustrate, in an exemplary manner, the […] herbicidal action of the compounds according to the invention, the herbicidal activity being stated in percent.

CCCC(=O)c1c(C(F)(F)F)ccc(C(=O)Nc2nnnn2CC)c1C [2-16]
80: Post-emergence action against POLCO (POLCO) | Post-emergence action against VERPE (VERPE [24])
90%: Pre-emergence action against ALOMY (herbicidal activity in percent) (ALOMY [1]) | Pre-emergence action against AVEFA (herbicidal activity) (AVEFA [2]) | Pre-emergence action against LOLRI (herbicidal activity) (LOLRI) | SETVI (Table B8, pre-emergence herbicidal activity) (SETVI [5]) | Pre-emergence action against MATIN (MATIN [8]) | Pre-emergence action against PHBPU (PHBPU [9]) | Pre-emergence action against STEME (STEME [10]) | Pre-emergence action against VIOTR (VIOTR [11]) | Post-emergence action against AVEFA (herbicidal action in percent) (AVEFA [14]) | Post-emergence action against DIGSA (herbicidal action in percent) (DIGSA [15]) | Post-emergence action against ECHCG (herbicidal action in percent) (ECHCG [16]) | Post-emergence action against SETVI (herbicidal action in percent) (SETVI [17])
100%: Pre-emergence action against DIGSA (herbicidal activity) (DIGSA [3]) | Pre-emergence action against ECHCG (herbicidal activity) (ECHCG [4]) | Pre-emergence action against ABUTH (herbicidal activity) (ABUTH [6]) | Pre-emergence action against AMARE (herbicidal activity) (AMARE [7]) | Pre-emergence action against VERPE (VERPE [12]) | Post-emergence action against ABUTH (herbicidal action in percent) (ABUTH [18]) | Post-emergence action against AMARE (herbicidal action in percent) (AMARE [19]) | Post-emergence action against MATIN (herbicidal action in percent) (MATIN [20])
80%: Pre-emergence action against HORMU (HORMU) | Post-emergence action against ALOMY (ALOMY [13])
100: Post-emergence action against PHBPU (PHBPU [21]) | Post-emergence action against STEME (STEME [22]) | Post-emergence action against VIOTR (VIOTR [23])

Cc1c(C(=O)Nc2nnnn2C)ccc(C(F)(F)F)c1C(=O)C1CC1 [1-18, 3-(cyclopropylcarbonyl)-2-methyl-N-(1-methyl-1H-tetrazol-5-yl)-4-(trifluoromethyl)benzamide]
90%: pest or weed control at 320 g/ha (CYPES [25]) | pest or weed control at 320 g/ha (PHBPU [9]; Ipomoea purpurea, 504 h) | pest or weed control at 80 g/ha (CYPES [26]) | pest or weed control at 80 g/ha (ECHCG [16]; Echinochloa crus-galli, 504 h, read-out: Post-emergence action against ECHCG (herbicidal action in percent)) | pest or weed control at 80 g/ha (LOLMU) | pest or weed control at 80 g/ha (AMARE [19]; Amaranthus retroflexus, 504 h, read-out: Post-emergence action against AMARE (herbicidal action in percent))
100%: pest or weed control at 320 g/ha (ALOMY [1]; Alopecurus myosuroides, 504 h, read-out: Pre-emergence action against ALOMY (herbicidal activity in percent)) | pest or weed control at 320 g/ha (AVEFA [2]; Avena fatua, 504 h, read-out: Pre-emergence action against AVEFA (herbicidal activity)) | pest or weed control at 320 g/ha (ECHCG [4]; Echinochloa crus-galli, 504 h, read-out: Pre-emergence action against ECHCG (herbicidal activity)) | pest or weed control at 320 g/ha (SETVI [5]; Setaria viridis, 504 h, read-out: SETVI (Table B8, pre-emergence herbicidal activity)) | pest or weed control at 320 g/ha (ABUTH [6]; Abutilon theophrasti, 504 h, read-out: Pre-emergence action against ABUTH (herbicidal activity)) | pest or weed control at 320 g/ha (AMARE [7]; Amaranthus retroflexus, 504 h, read-out: Pre-emergence action against AMARE (herbicidal activity)) | pest or weed control at 320 g/ha (MATIN [8]; Tripleurospermum inodorum, 504 h) | pest or weed control at 320 g/ha (VIOTR [11]; Viola tricolor, 504 h) | pest or weed control at 80 g/ha (ALOMY [13]; Alopecurus myosuroides, 504 h) | pest or weed control at 80 g/ha (AVEFA [14]; Avena fatua, 504 h, read-out: Post-emergence action against AVEFA (herbicidal action in percent)) | pest or weed control at 80 g/ha (SETVI [17]; Setaria viridis, 504 h, read-out: Post-emergence action against SETVI (herbicidal action in percent)) | pest or weed control at 80 g/ha (MATIN [20]; Tripleurospermum inodorum, 504 h, read-out: Post-emergence action against MATIN (herbicidal action in percent)) | pest or weed control at 80 g/ha (PHBPU [21]; Ipomoea purpurea, 504 h) | pest or weed control at 80 g/ha (STEME [22]; Stellaria media, 504 h) | pest or weed control at 80 g/ha (VIOTR [23]; Viola tricolor, 504 h) | pest or weed control at 80 g/ha (VERPE [24]; Veronica persica, 504 h)
80%: pest or weed control at 80 g/ha (ABUTH [18]; Abutilon theophrasti, 504 h, read-out: Post-emergence action against ABUTH (herbicidal action in percent))
